According to patent US4293713A, “Novel 1,1,3,5-substituted biuret compound and a pharmaceutical composition containing the same” (priority 1979, dated 1981):
Like-named read-outs stand apart in the source and are kept apart here.

How the values were obtained:
[1] = system: ddy strain of male mice; test: Acute toxicity (oral, 7 days observation); format: in vivo; conditions: oral, mice, 7 days
Method: (§1) Next, several tests for determining the pharmacological properties, in that acute toxicity, anti-pyretic activity, analgesic activity and anti-inflammatory activity of the present 1,1,3,5-substituted biuret compounds of the formula (1) were conducted and the test results are shown in Table (2). In the tests, each compounds to be tested was used as a suspension in 0.25% carboxymethylcellulose solution. Methods for testing are explained as follows:
The ddy strain of male mice (body weight, 20-25 g) were used as test animals. The mice were fasted overnight and the compound to be tested was administered orally. […] The lethal dose (mg/kg, body weight) of the test compound was determined in connection with the death number of mice/the number of mice tested. In Table 2, the values indicated with Δ marks are 50% lethal dose, LD50 (mg/kg, body weight).

[2] = system: ddy strain of male mice; test: Analgesic activity, acetic acid-induced stretching method; format: in vivo, mouse (ddy strain; conditions: Mus musculus, read-out: Analgesic activity, acetic acid-induced stretching method, inhibitory ratio
Method: as §1
According to the method reported by Koster et al., [Fed. Proc., Vol. 18, pp. 412 (1959)], the ddy strain of male mice (body weight, 20-25 g) were used as test animals. The mice were fasted overnight, 100 mg/kg body weight of the test compound was administered orally, then 1 hour after the administration, 0.2 ml of 0.7% acetic acid solution was injected intraperitoneally. The acetic acid-induced stretching symptom of mouse was observed. Analgesic activity of the test compound was calculated as the inhibitory ratio (%). In Table 2, the values in Parentheses show the data obtained from the test by using the dosage other than 100 mg/kg body weight. Further, the values indicated with Δ marks show 50% effective dose, ED50 (mg/kg body weight).

[3] = system: Wistar strain of male rats; test: Anti-pyretic activity (dry-yeast induced fever); format: in vivo, rat (Wistar strain; conditions: oral, up to 4 hours after administration, dose not given
Method: as §1
According to the method reported by Tanabe [Folia Pharmacologia Japonica, Vol. 73, pp. 803 (1977)], the Wistar strain of male rats (150-180 g body weight) were used as test animals. The rats were fasted overnight, and 1 ml/100 g (body weight) of 10% dry-yeast suspension were subcutaneously injected on the back of the rats. Five hours after the injection, the test compound was administered orally, then the body temperature of the rat was measured at time sequences. Anti-pyretic activity of the test compound was determined as the FI (febril index) by integrating pyrogenetic curve up to 4 hours after the administration of the test compound with time, and indicated as inhibitory ratio (%) shown by the following formula, [formula]

[4] = system: ddy strain of male mice; test: Analgesic activity, Haffner method; format: in vivo, mouse (ddy strain; conditions: with threshold morphine hydrochloride s.c.
Method: as §1
According to the modified method reported by Fujimura et al., [Bulletin of the Institute for Chemical Research, Kyoto University, No. 25, pp. 36 (1951)], the ddy strain of male mice (body weight, 20-25 g) were used as test animals. The mice were fasted overnight, 100 mg/kg body weight of the test compound was administered orally, then 45 minutes after the administration, the threshold amount (1.5-2.5 mg/kg body weight) of morphine hydrochloride was injected subcutaneously. Then 1-hour pain reaction of the mouse caused by a clamp was observed. Analgesic activity of the test compound was calculated as the inhibitory ratio (%). In Table 2, the values in parentheses show the data obtained from the test by using the dosage other than 100 mg/kg body weight. Further, the values indicated with Δ marks show 50% effective dose, ED50 (mg/kg body weight).

Structure (SMILES) | Acute toxicity, death number of mice/number of mice tested ([1]; 2000 mg/kg) | inhibition in vivo at 60 mg/kg ([2]; 60 mg/kg oral, mice) | Anti-pyretic activity, inhibitory ratio of febril index (FI) [3] | Acute toxicity, death number of mice/number of mice tested ([1]; 1000 mg/kg) | inhibition in vivo at 100 mg/kg ([2]; po) | Analgesic activity, Haffner method, inhibitory ratio ([4]; 100 mg/kg oral) | inhibition in vivo at 100 mg/kg ([2]; 100 mg/kg oral, mice) | Analgesic activity, Haffner method, inhibitory ratio ([4]; 200 mg/kg oral)
Cc1ccc(NC(=O)N(C)C(=O)N(C)C)cc1C [Compound No. 25, 1,1,3-Trimethyl-5-(3,4-dimethylphenyl)biuret] | 1/4 | 87.5% | 31% | – | – | – | – | –
CN(C)C(=O)N(C)C(=O)Nc1ccc(Cl)cc1Cl [compound 8, 1,1,3-Trimethyl-5-(2,4-dichlorophenyl)biruet] | 3/4 | – | 42% | 0/4 | 50% | 75% | – | –
CN(C)C(=O)N(C)C(=O)Nc1ccc(Cl)c(Cl)c1 [compound 10, 1,1,3-Trimethyl-5-(3,4-dichlorophenyl)biuret] | 3/4 | – | 43% | 1/4 | 50% | 62.5% | – | –
COc1ccc(NC(=O)N(C)C(=O)N(C)C)cc1OC [compound 18, 1,1,3-Trimethyl-5-(3,4-dimethoxyphenyl)biuret] | 4/4 | – | 18% | 0/4 | 75% | 62.5% | – | –
Cc1cccc(NC(=O)N(C)C(=O)N(C)C)c1C [compound 23, 1,1,3-Trimethyl-5-(2,3-dimethylphenyl)biuret] | 4/4 | – | 40% | 1/4 | – | 25% | 50% | –
Cc1c(Cl)cccc1NC(=O)N(C)C(=O)N(C)C [compound 26, 1,1,3-Trimethyl-5-(2-methyl-3-chlorophenyl)biuret] | 4/4 | – | 45% | 1/4 | 75% | 25% | – | –
CSc1ccc(NC(=O)N(C)C(=O)N(C)C)cc1 [compound 28, 1,1,3-Trimethyl-5-(4-methylthiophenyl)biuret] | 4/4 | – | – | 0/4 | 50% | – | – | –
CCCN(C(=O)Nc1ccccc1)C(=O)N(C)C [compound 31, 1,1-Dimethyl-3-n-propyl-5-phenylbiuret] | 0/4 | – | 12% | – | 37.5% | – | – | 62.5%
CCCCN(C(=O)Nc1ccccc1)C(=O)N(C)C [compound 32, 1,1-Dimethyl-3-n-butyl-5-phenylbiuret] | 3/4 | – | 18% | 0/4 | 37.5% | 31% | – | –
CCCCN(C)C(=O)N(C)C(=O)Nc1ccccc1 [compound 35, 1-n-Butyl-1,3-dimethyl-5-phenylbiuret] | 3/4 | – | 35% | 0/4 | 37.5% | 25% | – | –
